In publication PMC7156724, “Potent BRD4 inhibitor suppresses cancer cell-macrophage interaction” (Nature Communications, 2020):
Where “and” joins values, the source holds several entries; their conditions need not be identical. Equal entries are not always repeated.

Tests used:
A375 melanoma cells = assay: AlamarBlue assay, A375; assay type: cell-based, human; settings: for Cellular activity in melanoma cells (A375), alamarBlue: Fig.1g, replicates
Procedure: 3. AlamarBlue assay. AlamarBlue was made by resazurin sodium salt (Sigma, Cat
# 199303) dissolved in PBS.
NCI-H211, MDA-MB231 and A375 cells were plated in 96-well plates at approximately 30% confluence and left overnight to adhere. In the following day, […]
of treatment, 10 μl AlamarBlue reagent (0.3 mg/ml) was added to each well, and after 18h, the florescence intensity in each well was measured using a top-reading fluorescent plate reader with excitation at 530 nm and emission at 590 nm. […]

HIF1 reporter activity = assay: HIF1 luciferase reporter assay; assay type: cell-based, human; settings: A2780 and A375 cells, 20% or 1% O2, 24 h
Procedure: Fig. 7 NHWD-870 inhibited CSF1 expression through suppressing BRD4 and HIF1α in tumor cells. a, b Representative western blot analysis of control (Ctrl) and BRD4 knockout (KO) A375 and A2780 cells exposed to 20% or 1% O2 for 24 hours. Selected from three independent experiments. c, d Representative western blot analysis of A375 and A2780 cells treated with DMSO or 25 nM NHWD-870 and exposed to 20% or 1% O2 for 24 h. Selected from three independent experiments. e Relative HIF1 luciferase reporter activity in control (Ctrl), BRD4 knockout (KO), or NHWD-870 treated A375 and A2780 cells exposed to 20% or 1% O2 for 24 h. Data are presented as mean ± SEM from three independent experiments. f RT-qPCR analyses of CSF1 in control (Ctrl), BRD4 knockout (KO), or NHWD-870 treated A375 and A2780 cells exposed to 20% or 1% O2 for 24 hours. Data are presented as mean ± SEM from three independent experiments. g RT-qPCR analyses of HIF1A in A375 or A2780 cells treated with 15 nM NHWD-870 or DMSO control for 24 h. Data are presented as mean ± SEM from three independent experiments. h Genome browser view of BRD4 ChIP-seq peaks on the HIF1A promoter. Shown are BRD4 ChIP and input control of A375 cells (top panel) and BRD4 ChIP of MDA-MB231 cells treated with DMSO or JQ-1 (bottom panel). i BRD4 ChIP-qPCR analyses of the HIF1A promoter in A2780 cells treated with DMSO or NHWD-870 for 72 h. Data are presented as mean ± SEM from three independent experiments. j RT-qPCR analyses of CSF1 in A375 and A2780 cells were transiently transduced with HIF1α, then exposed to 1% O2 for 24 h. Ctrl, Control. Data are presented as mean ± SEM from three independent experiments. k A model showing the effects of NHWD-870 on cancer cell-TAM interaction. NHWD-870 inhibits the proliferation and survival of TAMs partly by inhibiting BRD4 activity, HIF1α expression, and CSF1 secretion by tumor cells, and downregulating CSF1R mediated ERK and PI3K/AKT signaling in TAMs. p values were calculated using two-tailed, unpaired t tests in this figure. *p < 0.05; **p < 0.01; ***p < 0.001. Source data are provided as a Source Data file.
Supplementary Figure 15. […]
Data in (a) and (c-e) are presented as mean ± SEM from 3 independent experiments. p values were calculated using two-tailed, unpaired t tests. **, p<0.01; ***, p<0.001. Source data are provided as a Source […]
All patients had […]
undergone complete cytoreductive surgery.
14. Immunohistochemical staining. Paraffin-embedded implantation samples isolated from peritoneal metastasis of EOC patients (128 cases) were sectioned at a thickness of 4μm. To stain CD68, CSF1 and p-BRD4, the slides were first deparaffinized in xylene and rehydrated with gradient concentrations of alcohol under standard procedures. After rehydration, the slides were immersed in 0.01 mol/L citrate buffer (pH 6.0) and heated (95°C) for 15 min for antigen retrieval.
Then, the samples were incubated with 3% hydrogen peroxide (H2O2) for 10 minutes followed by 10% normal goat serum blocking for 10 minutes. Subsequently, the sections were incubated with rabbit polyclonal anti-human CD68 antibody (dilution 1:100) (sc-20060, Santa Cruz Biotechnology) and anti-human p-BRD4

in vitro [1] = settings: human
Procedure: (§1) The concentration was calculated using the peak area ratio of analyte and internal […]
(§2) The results were calculated by the following equations:
(§3) % Unbound = 100 *FC / TC, % Bound = 100 * (1-FC / TC)
(§4) % Recovery = 100 * (FC + TC) / T0
(§5) TC = Total compound concentration as determined by the calculated concentration on the retentate side of the membrane
(§6) FC = Free compound concentration as determined by the calculated concentration on the dialysate side of the membrane […]
(§7) Equation of first order kinetics: […]
(§8) 8. Equilibrium dialysis assay. Binding with plasma protein and recovery rate of NHWD-870 were performed with human, CD-1 mouse and SD rat plasma as […]
(§9) described 2. […] The concentration was […]
(§10) calculated using the peak area ratio of analyte and internal standard. The results were calculated by the following equations: % Unbound = 100 *FC / TC, % Bound = 100 * (1-FC / TC); % Recovery = 100 * (FC + TC) / T0; TC = Total compound concentration as determined by the calculated concentration on the retentate side of the membrane; FC = Free compound concentration as determined by the (1 picture or pasted object on this page, not shown here) […]
(§11) calculated concentration on the dialysate side of the membrane; T0 = To t a l compound concentration as determined before dialysis. […]
(§12) 10. hERG channel assay. […]
(§13) HEK293 cell line stably

in vitro [2] = settings: CD-1, mouse
Procedure: as §1, §2, §3, §4, §5, §6, §7, §8, §9, §10, §11, §12, §13

in vitro [3] = settings: SD, rat
Procedure: as §1, §2, §3, §4, §5, §6, §7, §8, §9, §10, §11, §12, §13

SMILES	Cellular activity in melanoma cells (A375), alamarBlue (A375 melanoma cells; concentration(nM) 0.21442)	Cellular activity in melanoma cells (A375), alamarBlue (A375 melanoma cells; concentration(nM) 0.31236)	Cellular activity in melanoma cells (A375), alamarBlue (A375 melanoma cells; concentration(nM) 0.4103)	Cellular activity in melanoma cells (A375), alamarBlue (A375 melanoma cells; concentration(nM) 0.6032)	Cellular activity in melanoma cells (A375), alamarBlue (A375 melanoma cells; concentration(nM) 1.2043)	Cellular activity in melanoma cells (A375), alamarBlue (A375 melanoma cells; concentration(nM) 1.8024)	Cellular activity in melanoma cells (A375), alamarBlue (A375 melanoma cells; concentration(nM) 2.4)	Cellular activity in melanoma cells (A375), alamarBlue (A375 melanoma cells; concentration(nM) 3)	IC50 (A375 melanoma cells; Homo sapiens, A-375, nM printed in b8, the picture prints no unit, read-out: IC50, cellular activity in A375 (alamarBlue))	HIF1 reporter activity (HIF1 reporter activity)	recovery (in vitro [1])	recovery (in vitro [2])	recovery (in vitro [3])
Cc1sc2c(c1C)C(c1ccc(Cl)cc1)=N[C@@H](CC(=O)Nc1ccc(O)cc1)c1nnc(C)n1-2 [OTX-015]	0.2687 and 0.138	1.399 and 1.862	3 and 0.4387	12.3903 and 10.5044	24.9941 and 17.1565	69.0356 and 72.751	91.1738 and 98.6047	100.838 and 100.296	34.8 nM	significantly decreased HIF1 reporter activity	–	–	–
CC(=O)CC(c1ccccc1)c1c(O)c2ccccc2oc1=O (stereo not shown) [Warfarin, reference compound]	–	–	–	–	–	–	–	–	–	–	90.2%	99.2%	86.8%
